Measured values reported in ChEMBL document CHEMBL4800728, “Data for DCP probe JNJ-54119936” (2021).

Assays:
[1] = biological target: T1, Peroxisome proliferator-activated receptor gamma (Homo sapiens) (UniProt P37231); experiment: PPARgamma In-house nuclear receptor screen; details: Compound concentration 3.0 uM
T1 sequence (whole entry): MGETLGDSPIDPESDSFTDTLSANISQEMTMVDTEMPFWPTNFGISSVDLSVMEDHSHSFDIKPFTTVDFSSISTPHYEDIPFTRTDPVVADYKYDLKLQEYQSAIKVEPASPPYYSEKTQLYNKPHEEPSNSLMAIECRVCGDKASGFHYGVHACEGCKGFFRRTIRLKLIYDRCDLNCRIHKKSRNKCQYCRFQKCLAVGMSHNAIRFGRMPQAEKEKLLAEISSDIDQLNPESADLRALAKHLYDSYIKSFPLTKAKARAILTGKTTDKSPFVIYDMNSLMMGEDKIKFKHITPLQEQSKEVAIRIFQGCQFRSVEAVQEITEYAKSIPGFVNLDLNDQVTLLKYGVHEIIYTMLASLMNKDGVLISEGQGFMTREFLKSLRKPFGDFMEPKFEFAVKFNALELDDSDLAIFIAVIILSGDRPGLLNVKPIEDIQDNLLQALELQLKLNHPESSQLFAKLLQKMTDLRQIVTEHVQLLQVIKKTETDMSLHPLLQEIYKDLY

[2] = biological target: Insulin-like growth factor 1 receptor (Homo sapiens) (UniProt P08069); experiment: IGF-1R Invitrogen kinase panel; details: Compound concentration 10.0 uM
[3] = biological target: Proto-oncogene tyrosine-protein kinase Src (Homo sapiens) (UniProt P12931); experiment: SRC Invitrogen kinase panel; details: Compound concentration 10.0 uM
[4] = biological target: Aurora kinase A (Homo sapiens) (UniProt O14965); experiment: Aurora_A Invitrogen kinase panel; details: Compound concentration 10.0 uM
Aurora kinase A (Homo sapiens), sequence (O14965 whole entry): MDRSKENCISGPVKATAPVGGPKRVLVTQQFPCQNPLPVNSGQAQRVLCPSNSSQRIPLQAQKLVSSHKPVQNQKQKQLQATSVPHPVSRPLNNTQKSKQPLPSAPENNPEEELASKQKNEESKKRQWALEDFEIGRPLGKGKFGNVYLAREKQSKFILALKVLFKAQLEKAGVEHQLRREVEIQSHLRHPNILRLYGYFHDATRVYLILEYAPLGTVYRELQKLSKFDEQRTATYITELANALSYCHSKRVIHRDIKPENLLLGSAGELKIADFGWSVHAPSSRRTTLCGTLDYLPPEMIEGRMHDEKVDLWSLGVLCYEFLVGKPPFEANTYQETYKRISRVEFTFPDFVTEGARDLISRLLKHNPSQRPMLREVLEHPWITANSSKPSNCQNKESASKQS

[5] = biological target: RAC-alpha serine/threonine-protein kinase (Homo sapiens) (UniProt P31749); experiment: PKBalpha Invitrogen kinase panel; details: Compound concentration 10.0 uM
RAC-alpha serine/threonine-protein kinase (Homo sapiens), sequence (P31749 whole entry): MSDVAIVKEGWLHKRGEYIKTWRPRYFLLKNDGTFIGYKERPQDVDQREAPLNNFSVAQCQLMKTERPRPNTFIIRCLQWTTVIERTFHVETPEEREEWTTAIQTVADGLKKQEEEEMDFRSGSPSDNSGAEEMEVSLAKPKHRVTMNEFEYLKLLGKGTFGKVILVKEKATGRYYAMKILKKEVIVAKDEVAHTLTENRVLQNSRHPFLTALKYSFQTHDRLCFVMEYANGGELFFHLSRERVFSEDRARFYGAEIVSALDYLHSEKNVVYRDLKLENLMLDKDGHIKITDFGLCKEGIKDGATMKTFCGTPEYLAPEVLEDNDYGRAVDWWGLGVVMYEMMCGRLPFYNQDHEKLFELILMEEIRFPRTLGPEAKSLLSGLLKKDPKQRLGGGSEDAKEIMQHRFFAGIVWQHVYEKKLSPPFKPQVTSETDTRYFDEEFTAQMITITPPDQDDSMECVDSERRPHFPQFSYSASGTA

[6] = biological target: Muscarinic acetylcholine receptor M3 (Homo sapiens) (UniProt P20309); details: Compound concentration 10.0 uM
[7] = biological target: Protein kinase C beta type (Homo sapiens) (UniProt P05771); experiment: PKCbetaI Invitrogen kinase panel; details: Compound concentration 10.0 uM
[8] = biological target: Dual specificity protein kinase CLK2 (Homo sapiens) (UniProt P49760); experiment: CLK2 Invitrogen kinase panel; details: Compound concentration 10.0 uM
[9] = biological target: Tyrosine-protein kinase Blk (Homo sapiens) (UniProt P51451); experiment: Blk Invitrogen kinase panel; details: Compound concentration 10.0 uM
[10] = biological target: Adenosine receptor A2a (Homo sapiens) (UniProt P29274); experiment: A2a (h) CEREP screen
Adenosine receptor A2a (Homo sapiens), sequence (P29274 whole entry): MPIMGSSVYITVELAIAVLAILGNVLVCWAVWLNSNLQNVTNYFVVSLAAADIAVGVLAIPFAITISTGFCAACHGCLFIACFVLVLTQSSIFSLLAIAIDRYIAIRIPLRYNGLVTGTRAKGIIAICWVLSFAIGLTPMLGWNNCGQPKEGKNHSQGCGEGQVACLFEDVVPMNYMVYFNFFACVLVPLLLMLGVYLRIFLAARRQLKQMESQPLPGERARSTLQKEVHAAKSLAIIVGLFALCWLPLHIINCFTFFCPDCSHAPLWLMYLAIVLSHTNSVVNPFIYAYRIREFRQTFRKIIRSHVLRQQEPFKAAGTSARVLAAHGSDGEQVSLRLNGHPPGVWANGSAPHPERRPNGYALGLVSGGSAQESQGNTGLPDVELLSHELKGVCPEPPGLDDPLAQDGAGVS

[11] = biological target: Ribosomal protein S6 kinase alpha-2 (Homo sapiens) (UniProt Q15349); experiment: Rsk3 Invitrogen kinase panel; details: Compound concentration 10.0 uM
[12] = biological target: Substance-K receptor (Homo sapiens) (UniProt P21452); experiment: NK2 (h) CEREP screen; details: Compound concentration 10.0 uM
[13] = biological target: D(1A) dopamine receptor (Homo sapiens) (UniProt P21728); experiment: D1 (h) CEREP screen; details: Compound concentration 10.0 uM
D(1A) dopamine receptor (Homo sapiens), sequence (P21728 whole entry): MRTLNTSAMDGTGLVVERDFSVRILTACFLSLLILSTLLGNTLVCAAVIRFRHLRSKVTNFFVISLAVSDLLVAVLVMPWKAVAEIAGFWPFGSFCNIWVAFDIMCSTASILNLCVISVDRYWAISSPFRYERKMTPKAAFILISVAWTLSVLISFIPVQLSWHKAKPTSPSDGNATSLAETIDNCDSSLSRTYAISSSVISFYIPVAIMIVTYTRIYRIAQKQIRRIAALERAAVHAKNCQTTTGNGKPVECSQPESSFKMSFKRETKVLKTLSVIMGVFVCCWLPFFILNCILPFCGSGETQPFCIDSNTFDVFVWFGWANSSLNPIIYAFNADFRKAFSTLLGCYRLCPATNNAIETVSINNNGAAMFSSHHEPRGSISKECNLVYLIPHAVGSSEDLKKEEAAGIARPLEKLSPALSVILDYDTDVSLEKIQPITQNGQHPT

[14] = biological target: GABA-A receptor; anion channel (Homo sapiens) (UniProt P14867+P47870+P18507+P28472+P48169+Q99928+Q9UN88+P34903+O00591+O14764+Q8N1C3+P18505+P78334+P47869+P31644+Q16445); experiment: GABA (non selective) CEREP screen; type: protein-complex assay; details: Compound concentration 1.0 uM
[15] = biological target: Nuclear receptor ROR-beta (Homo sapiens) (UniProt Q92753); experiment: ThermoFluor Binding Assay (RORB)
Nuclear receptor ROR-beta (Homo sapiens), sequence (Q92753 whole entry): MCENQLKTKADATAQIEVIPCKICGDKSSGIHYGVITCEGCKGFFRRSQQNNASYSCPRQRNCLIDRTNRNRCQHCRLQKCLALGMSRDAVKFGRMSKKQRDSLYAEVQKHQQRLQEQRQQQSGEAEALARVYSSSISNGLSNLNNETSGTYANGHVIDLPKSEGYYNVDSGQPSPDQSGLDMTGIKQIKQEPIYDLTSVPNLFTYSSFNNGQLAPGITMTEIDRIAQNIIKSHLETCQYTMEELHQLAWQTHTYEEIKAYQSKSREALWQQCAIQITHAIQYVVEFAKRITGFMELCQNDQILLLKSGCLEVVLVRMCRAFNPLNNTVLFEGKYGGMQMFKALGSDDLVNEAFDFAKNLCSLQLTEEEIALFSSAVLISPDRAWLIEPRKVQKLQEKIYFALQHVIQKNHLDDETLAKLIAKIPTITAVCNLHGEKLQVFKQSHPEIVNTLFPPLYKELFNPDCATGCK

[16] = biological target: Cyclin-dependent kinase 5/CDK5 activator 1 (Homo sapiens) (UniProt Q00535+Q15078); experiment: CDK5/p35 Invitrogen kinase panel; type: protein-complex assay; details: Compound concentration 10.0 uM
[17] = biological target: Adenosine receptor A3 (Homo sapiens) (UniProt P0DMS8); experiment: A3 (h) CEREP screen
Adenosine receptor A3 (Homo sapiens), sequence (P0DMS8 whole entry): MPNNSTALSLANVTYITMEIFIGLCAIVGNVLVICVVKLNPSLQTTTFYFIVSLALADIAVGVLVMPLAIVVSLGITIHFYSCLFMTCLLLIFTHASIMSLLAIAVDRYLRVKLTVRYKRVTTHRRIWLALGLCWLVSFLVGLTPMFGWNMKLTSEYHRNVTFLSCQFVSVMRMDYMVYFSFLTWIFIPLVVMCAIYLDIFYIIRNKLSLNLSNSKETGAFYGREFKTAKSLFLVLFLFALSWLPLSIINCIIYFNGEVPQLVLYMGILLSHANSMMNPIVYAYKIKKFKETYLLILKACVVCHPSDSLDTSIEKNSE

[18] = biological target: C-C chemokine receptor type 1 (Homo sapiens) (UniProt P32246); experiment: CCR1 (h) CEREP screen; details: Compound concentration 1.0 uM
[19] = biological target: Protein kinase C alpha type (Homo sapiens) (UniProt P17252); experiment: PKCalpha Invitrogen kinase panel; details: Compound concentration 10.0 uM
[20] = biological target: Histamine H1 receptor (Homo sapiens) (UniProt P35367); details: Compound concentration 10.0 uM
[21] = biological target: Sodium-dependent serotonin transporter (Homo sapiens) (UniProt P31645); details: Compound concentration 10.0 uM
Sodium-dependent serotonin transporter (Homo sapiens), sequence (P31645 whole entry, looked up): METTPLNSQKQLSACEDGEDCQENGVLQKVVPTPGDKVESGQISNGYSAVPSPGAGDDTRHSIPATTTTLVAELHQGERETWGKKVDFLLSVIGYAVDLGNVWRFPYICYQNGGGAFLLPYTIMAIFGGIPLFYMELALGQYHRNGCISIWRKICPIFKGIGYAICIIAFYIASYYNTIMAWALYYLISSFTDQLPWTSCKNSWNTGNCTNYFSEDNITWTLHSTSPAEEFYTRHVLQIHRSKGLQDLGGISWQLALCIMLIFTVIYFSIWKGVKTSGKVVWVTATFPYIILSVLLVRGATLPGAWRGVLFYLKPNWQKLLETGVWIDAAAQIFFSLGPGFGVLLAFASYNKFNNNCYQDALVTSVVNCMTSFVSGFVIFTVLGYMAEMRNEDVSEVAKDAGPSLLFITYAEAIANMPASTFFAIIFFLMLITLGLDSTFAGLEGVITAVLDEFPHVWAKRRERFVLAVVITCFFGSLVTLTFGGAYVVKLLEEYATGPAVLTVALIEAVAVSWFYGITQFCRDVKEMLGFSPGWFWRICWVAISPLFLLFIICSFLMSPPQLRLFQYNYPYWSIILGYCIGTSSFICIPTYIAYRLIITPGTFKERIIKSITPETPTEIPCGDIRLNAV

[22] = biological target: Calcium/calmodulin-dependent protein kinase type II subunit alpha (Homo sapiens) (UniProt Q9UQM7); experiment: CaMKIIalpha Invitrogen kinase panel; details: Compound concentration 10.0 uM
Calcium/calmodulin-dependent protein kinase type II subunit alpha (Homo sapiens), sequence (Q9UQM7 whole entry): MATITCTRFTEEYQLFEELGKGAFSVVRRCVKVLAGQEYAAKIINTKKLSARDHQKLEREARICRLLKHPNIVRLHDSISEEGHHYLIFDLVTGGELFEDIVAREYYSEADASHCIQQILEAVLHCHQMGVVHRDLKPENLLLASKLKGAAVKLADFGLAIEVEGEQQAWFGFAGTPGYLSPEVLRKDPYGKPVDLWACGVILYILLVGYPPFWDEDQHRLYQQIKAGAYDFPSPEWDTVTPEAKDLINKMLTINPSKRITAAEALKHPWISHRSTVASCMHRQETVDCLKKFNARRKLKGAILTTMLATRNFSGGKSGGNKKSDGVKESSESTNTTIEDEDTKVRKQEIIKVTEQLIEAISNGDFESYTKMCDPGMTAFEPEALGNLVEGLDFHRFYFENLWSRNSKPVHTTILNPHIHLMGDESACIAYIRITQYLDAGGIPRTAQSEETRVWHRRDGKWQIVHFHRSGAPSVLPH

[23] = biological target: Cyclin-dependent kinase 1/cyclin B (Homo sapiens) (UniProt P06493+P14635+Q8WWL7+O95067); experiment: CDK1/cyclinB Invitrogen kinase panel; type: protein-complex assay; details: Compound concentration 10.0 uM
[24] = biological target: Histamine H2 receptor (Homo sapiens) (UniProt P25021); details: Compound concentration 10.0 uM
[25] = biological target: Vitamin D3 receptor (Homo sapiens) (UniProt P11473); experiment: VDR Indigo Bioscience nuclear receptor screen
Vitamin D3 receptor (Homo sapiens), sequence (P11473 whole entry): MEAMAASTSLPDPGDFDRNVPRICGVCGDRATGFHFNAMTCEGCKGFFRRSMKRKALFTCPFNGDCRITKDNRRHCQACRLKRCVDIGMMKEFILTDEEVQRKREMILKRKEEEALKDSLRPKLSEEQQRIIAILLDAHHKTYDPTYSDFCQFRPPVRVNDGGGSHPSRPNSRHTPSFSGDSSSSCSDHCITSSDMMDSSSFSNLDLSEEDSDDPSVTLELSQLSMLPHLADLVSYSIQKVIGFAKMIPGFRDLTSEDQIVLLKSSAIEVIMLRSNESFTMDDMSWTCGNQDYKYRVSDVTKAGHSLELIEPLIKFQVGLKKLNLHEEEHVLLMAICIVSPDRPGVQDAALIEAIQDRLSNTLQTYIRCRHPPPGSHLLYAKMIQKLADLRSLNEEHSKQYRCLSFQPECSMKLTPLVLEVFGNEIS

[26] = biological target: Kappa-type opioid receptor (Homo sapiens) (UniProt P41145); experiment: Kappa (KOP) (h) CEREP screen; details: Compound concentration 10.0 uM
[27] = biological target: D(3) dopamine receptor (Homo sapiens) (UniProt P35462); details: Compound concentration 10.0 uM
[28] = biological target: Calcium/calmodulin-dependent protein kinase type 1D (Homo sapiens) (UniProt Q8IU85); experiment: CaMKIdelta Invitrogen kinase panel; details: Compound concentration 10.0 uM
[29] = biological target: Sodium-dependent noradrenaline transporter (Homo sapiens) (UniProt P23975); experiment: norepinephrine transporter (h) CEREP screen
Sodium-dependent noradrenaline transporter (Homo sapiens), sequence (P23975 whole entry): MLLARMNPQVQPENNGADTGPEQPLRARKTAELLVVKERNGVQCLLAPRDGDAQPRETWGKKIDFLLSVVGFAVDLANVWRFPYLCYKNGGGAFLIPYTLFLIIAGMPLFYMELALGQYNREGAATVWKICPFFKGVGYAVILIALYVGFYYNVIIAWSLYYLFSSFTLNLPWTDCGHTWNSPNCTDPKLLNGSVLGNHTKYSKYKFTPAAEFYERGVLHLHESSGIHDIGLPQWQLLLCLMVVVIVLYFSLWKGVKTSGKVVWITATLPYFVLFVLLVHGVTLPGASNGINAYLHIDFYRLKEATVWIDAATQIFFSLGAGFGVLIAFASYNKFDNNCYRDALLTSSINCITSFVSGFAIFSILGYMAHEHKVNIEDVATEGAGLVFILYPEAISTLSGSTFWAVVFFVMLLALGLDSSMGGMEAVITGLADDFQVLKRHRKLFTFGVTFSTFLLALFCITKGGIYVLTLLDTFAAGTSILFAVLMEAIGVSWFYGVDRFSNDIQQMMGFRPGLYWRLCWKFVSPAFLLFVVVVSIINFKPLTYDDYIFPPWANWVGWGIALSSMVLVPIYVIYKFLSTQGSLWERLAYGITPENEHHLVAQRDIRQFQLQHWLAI

[30] = biological target: Alpha-1B adrenergic receptor (Homo sapiens) (UniProt P35368); details: Compound concentration 10.0 uM
[31] = biological target: Rho-associated protein kinase 1 (Homo sapiens) (UniProt Q13464); experiment: ROCK_I Invitrogen kinase panel; details: Compound concentration 10.0 uM
[32] = biological target: T2, Peroxisome proliferator-activated receptor delta (Homo sapiens) (UniProt Q03181); experiment: PPARdelta Indigo Bioscience nuclear receptor screen
T2 sequence (whole entry): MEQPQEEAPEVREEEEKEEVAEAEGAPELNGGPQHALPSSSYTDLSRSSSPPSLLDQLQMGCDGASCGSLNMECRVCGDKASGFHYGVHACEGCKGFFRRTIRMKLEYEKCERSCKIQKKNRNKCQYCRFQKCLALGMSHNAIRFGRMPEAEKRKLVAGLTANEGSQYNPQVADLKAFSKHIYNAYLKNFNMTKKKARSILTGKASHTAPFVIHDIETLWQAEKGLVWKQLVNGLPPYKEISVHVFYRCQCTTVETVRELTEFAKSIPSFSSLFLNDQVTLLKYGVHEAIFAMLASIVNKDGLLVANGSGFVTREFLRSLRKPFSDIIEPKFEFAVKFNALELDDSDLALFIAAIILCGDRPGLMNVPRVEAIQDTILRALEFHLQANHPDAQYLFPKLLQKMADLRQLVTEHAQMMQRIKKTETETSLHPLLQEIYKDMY

COc1nc2ccc([C@@](O)(c3ccccc3)C3CCN(C(C)=O)CC3)cc2c(Cl)c1Cc1ccc(-n2cccn2)cc1 [JNJ-54119936]
inactive: inhibition [1] 28.2% | inhibition [2] 6% | inhibition [3] 4% | inhibition [4] 9% | inhibition [5] -5% | inhibition [6] 0.49% | inhibition [7] 1% | inhibition [8] 4% | inhibition [9] 0% | inhibition ([10]; Compound concentration 1.0 uM) 18% | inhibition ([10]; Compound concentration 10.0 uM) 21% | inhibition [11] 11% | inhibition [12] 23% | inhibition [13] 16% | inhibition [14] 12% | qKD [15] > 75 µM | inhibition [16] -2% | inhibition ([17]; Compound concentration 1.0 uM) 45% | inhibition ([17]; Compound concentration 10.0 uM) 25% | inhibition [18] 17% | inhibition [19] 4% | inhibition [20] 38% | inhibition [21] 5.62% | inhibition [22] 14% | inhibition [23] 0% | inhibition [24] -0.99% | inhibition ([25]; Compound concentration 0.3 uM) -6.97% | inhibition ([25]; Compound concentration 1.0 uM) -0.284% | inhibition [26] 12% | inhibition [27] -2.36% | inhibition [28] 7% | inhibition ([29]; Compound concentration 1.0 uM) 34% | inhibition ([29]; Compound concentration 10.0 uM) 16% | inhibition [30] -4.69% | inhibition [31] 4% | inhibition ([32]; Compound concentration 0.3 uM) -3.53% | inhibition ([32]; Compound concentration 1.0 uM) -5.27% | inhibition ([32]; Compound concentration 3.0 uM) 0.29%
